System: OVCAR-5 complex spheroids, viability
Test: Anticancer human tumor OVCAR-5 cell line growth inhibition;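 also: spheroids exposed to agents for seven days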;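 as to viability, T/C: 100% = DMSO vehicle control wells viability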
Conditions: for IC50: curve of first compound; for viability, T/C: stronger effect = lower value
Procedure, shortened: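 Multicellular complex spheroids of tumor cells with human endothelial cells (HUVEC) and mesenchymal stem cells; the LSD1 inhibitor iadademstat was combined with standard-of-care or investigational agents. Top concentration at or near clinical Cmax, half-log dilutions; final DMSO ≤0.25%.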

[1] = second compound 0.1 µM, first compound 0.0316 µM
[2] = second compound 0.1 µM, first compound 0.1 µM
[3] = second compound 0.1 µM, first compound 0.316 µM
[4] = second compound 0.1 µM, first compound 1 µM
[5] = second compound 0.1 µM, first compound 3.16 µM
[6] = second compound 0.1 µM, first compound 10 µM
[7] = second compound 0.316 µM, first compound 0.0316 µM
[8] = second compound 0.316 µM, first compound 0.1 µM
[9] = second compound 0.316 µM, first compound 0.316 µM
[10] = second compound 0.316 µM, first compound 1 µM
[11] = second compound 0.316 µM, first compound 3.16 µM
[12] = second compound 0.316 µM, first compound 10 µM
[13] = second compound 1 µM, first compound 0.0316 µM
[14] = second compound 1 µM, first compound 0.1 µM
[15] = second compound 1 µM, first compound 0.316 µM
[16] = second compound 1 µM, first compound 1 µM
[17] = second compound 1 µM, first compound 3.16 µM
[18] = second compound 1 µM, first compound 10 µM
[19] = second compound 3.16 µM, first compound 0.0316 µM
[20] = second compound 3.16 µM, first compound 0.1 µM
[21] = second compound 3.16 µM, first compound 0.316 µM
[22] = second compound 3.16 µM, first compound 1 µM
[23] = second compound 3.16 µM, first compound 3.16 µM
[24] = second compound 3.16 µM, first compound 10 µM
[25] = second compound 10 µM, first compound 0.0316 µM
[26] = second compound 10 µM, first compound 0.1 µM
[27] = second compound 10 µM, first compound 0.316 µM
[28] = second compound 10 µM, first compound 1 µM
[29] = second compound 10 µM, first compound 3.16 µM
[30] = second compound 10 µM, first compound 10 µM

SMILES: CC(C)c1c(-c2ccccc2)nc2c(C#N)c[nH]n2c1=O + NC1CCC(NC2CC2c2ccccc2)CC1
- IC50 (second compound 0.1 µM): > 10 µM
- IC50 (second compound 0.316 µM): > 10 µM
- IC50 (second compound 1 µM): > 10 µM
- IC50 (second compound 3.16 µM): > 10 µM
- IC50 (second compound 10 µM): > 10 µM
- viability, T/C [1]: 114%
- viability, T/C [2]: 124%
- viability, T/C [3]: 108%
- viability, T/C [4]: 130%
- viability, T/C [5]: 113%
- viability, T/C [6]: 117%
- viability, T/C [7]: 119%
- viability, T/C [8]: 122%
- viability, T/C [9]: 114%
- viability, T/C [10]: 104%
- viability, T/C [11]: 118%
- viability, T/C [12]: 121%
- viability, T/C [13]: 110%
- viability, T/C [14]: 105%
- viability, T/C [15]: 111%
- viability, T/C [16]: 113%
- viability, T/C [17]: 115%
- viability, T/C [18]: 106%
- viability, T/C [19]: 92.9%
- viability, T/C [20]: 102%
- viability, T/C [21]: 108%
- viability, T/C [22]: 101%
- viability, T/C [23]: 89.3%
- viability, T/C [24]: 93.5%
- viability, T/C [25]: 88.5%
- viability, T/C [26]: 81.5%
- viability, T/C [27]: 77.4%
- viability, T/C [28]: 79.9%
- viability, T/C [29]: 82.7%
- viability, T/C [30]: 79.3%

SMILES: CC1COCCN1c1cc(-c2ccnn2C)c2ccnc(-c3ccn[nH]3)c2n1 (stereo not given) + NC1CCC(NC2CC2c2ccccc2)CC1
- IC50 (second compound 0.1 µM): 0.0618 µM
- IC50 (second compound 0.316 µM): 0.0619 µM
- IC50 (second compound 1 µM): 0.0814 µM
- IC50 (second compound 3.16 µM): 0.0711 µM
- IC50 (second compound 10 µM): 0.0477 µM
- viability, T/C (second compound 0.1 µM, first compound 0.00316 µM): 111%
- viability, T/C (second compound 0.1 µM, first compound 0.01 µM): 86.9%
- viability, T/C [1]: 60.4%
- viability, T/C [2]: 41.7%
- viability, T/C [3]: 37.2%
- viability, T/C [4]: 31.6%
- viability, T/C (second compound 0.316 µM, first compound 0.00316 µM): 110%
- viability, T/C (second compound 0.316 µM, first compound 0.01 µM): 87.7%
- viability, T/C [7]: 61.2%
- viability, T/C [8]: 41%
- viability, T/C [9]: 37.4%
- viability, T/C [10]: 32%
- viability, T/C (second compound 1 µM, first compound 0.00316 µM): 104%
- viability, T/C (second compound 1 µM, first compound 0.01 µM): 88.8%
- viability, T/C [13]: 65.2%
- viability, T/C [14]: 46.2%
- viability, T/C [15]: 39.4%
- viability, T/C [16]: 34.7%
- viability, T/C (second compound 3.16 µM, first compound 0.00316 µM): 83.8%
- viability, T/C (second compound 3.16 µM, first compound 0.01 µM): 83.4%
- viability, T/C [19]: 60.1%
- viability, T/C [20]: 46.8%
- viability, T/C [21]: 40.7%
- viability, T/C [22]: 35.8%
- viability, T/C (second compound 10 µM, first compound 0.00316 µM): 79.1%
- viability, T/C (second compound 10 µM, first compound 0.01 µM): 65.9%
- viability, T/C [25]: 55%
- viability, T/C [26]: 41.9%
- viability, T/C [27]: 37.8%
- viability, T/C [28]: 33.3%

SMILES: COc1ccc([C@@H](O)c2cc(-c3ncnc4cc(N5CCOCC5)ccc34)c(F)cc2Cl)nn1 + NC1CCC(NC2CC2c2ccccc2)CC1
- IC50 (second compound 0.1 µM): 1.91 µM
- IC50 (second compound 0.316 µM): 1.36 µM
- IC50 (second compound 1 µM): 1.92 µM
- IC50 (second compound 3.16 µM): 1.61 µM
- IC50 (second compound 10 µM): 0.992 µM
- viability, T/C [1]: 88.3%
- viability, T/C [2]: 91.5%
- viability, T/C [3]: 79%
- viability, T/C [4]: 56%
- viability, T/C [5]: 46%
- viability, T/C [6]: 26.1%
- viability, T/C [7]: 99.3%
- viability, T/C [8]: 93.1%
- viability, T/C [9]: 69.6%
- viability, T/C [10]: 54.5%
- viability, T/C [11]: 40%
- viability, T/C [12]: 26%
- viability, T/C [13]: 88.2%
- viability, T/C [14]: 80.2%
- viability, T/C [15]: 66.4%
- viability, T/C [16]: 60.9%
- viability, T/C [17]: 44.2%
- viability, T/C [18]: 28%
- viability, T/C [19]: 93.3%
- viability, T/C [20]: 83.2%
- viability, T/C [21]: 69.3%
- viability, T/C [22]: 57.5%
- viability, T/C [23]: 40.5%
- viability, T/C [24]: 26.1%
- viability, T/C [25]: 82.5%
- viability, T/C [26]: 83%
- viability, T/C [27]: 63%
- viability, T/C [28]: 50.8%
- viability, T/C [29]: 35.8%
- viability, T/C [30]: 25.6%

Source: PubChem BioAssay AID1918956 (Molecular Pharmacology Branch, DTP, NCI, 2023)
